Blank lines part the entries; values can stand above or below the molecule they belong to.
How the values were obtained:
4T1 cells = experiment: Tumor regression study in murine breast cancer model; type: in vivo, Balb/c mice
[1] = tumor-bearing mice, 25 days, vs untreated group; CYP 0.3 mg/kg BW
[2] = Serum drug concentration following an intravenous injection; type: in vivo, Balb/c mice
Experimental: The mice were sacrificed after 2 h and 24 h of tail-vein injection (n = 5). The organs such as the liver, kidney, heart, spleen, lungs, and brain, as well as the tumor tissues, were isolated and kept in lysis buffer (pH 7.4) and kept at −150 °C in a freezer until further analysis. Additionally, the weights of all the organs and tumor tissues were measured for quantitative analysis of the presence of drug-loaded NPs.
To determine the serum level of total drug-loaded NPs, blood samples of all the mice treated (n = 5) were collected by cardiac puncture using a 1-mL syringe with a 25G needle. A secondary method of euthanasia was performed after a cardiac puncture to sacrifice the animal. The blood samples were collected at two time points of analysis (2 h and 24 h of treatment). The blood samples were allowed to clot by leaving them at room temperature and then centrifuged at 10,000 rpm for 30 min at 4 °C to collect the supernatant serum. Afterward, 100 µL of each serum sample was collected and stored at −80 °C until it was assayed. The fluorescence emission of serum was measured using Perkin Elmer 2030 manager software attached to a 2030 multilabel reader victor X5 (Perkin Elmer) at 485/535 nm. The data were illustrated as means ± SD in RFU/100 µL of serum.

[3] = Animal biodistribution study (organ and tumor distribution of DOX); type: in vivo, Balb/c mice; conditions: for DOX in heart / DOX in kidney / DOX in liver / DOX in lungs / DOX in spleen / DOX in tumor: 4T1 tumor mice, IV DOX 5 mg/kg

Compound: O=P1(N(CCCl)CCCl)NCCCO1 (stereo not drawn) [free CYP, cyclophosphamide]
tumor size at first treatment (4T1 cells; day 14 after tumor inoculation, when first treatment was administered): 145.89 ± 33.53 mm^3 | tumor size, times less than the untreated group (4T1 cells; day 27): ~3.5 | tumor size (4T1 cells; day 27, IV, three doses every two days from day 14, CYP 0.3 mg/kg where drug present): 633.33 ± 121.16 mm^3 | body weight gain / visible toxicity [1]: significantly slowed the gain

serum drug concentration, 2 h (%) ([2]; 2 h, Supplementary Table 3): 2.02% | serum drug concentration, 24 h (%) ([2]; 24 h, Supplementary Table 3): 1.71% | serum drug concentration, 2 h ([2]; DOX 5 mg/kg, 2 h): 110.53 ± 11.83 ng/100 μL | blood serum fluorescence, 2 h ([2]; DOX 5 mg/kg, 2 h (Figure 6)): 1008.3 ± 431.41 RFU/100 µL | serum drug concentration, 24 h ([2]; DOX 5 mg/kg, 24 h): 93.74 ± 3.89 ng/100 μL | DOX in heart ([3]; 2 h): 2.86 ± 0.23 ng/mg | DOX in kidney ([3]; 2 h): 1.45 ± 0.01 ng/mg | DOX in liver ([3]; 2 h): 0.3 ± 0.01 ng/mg | DOX in lungs ([3]; 2 h): 0.11 ± 0.01 ng/mg | DOX in spleen ([3]; 2 h): 0.13 ± 0.01 ng/mg | DOX in tumor ([3]; 2 h): 0.37 ± 0.01 ng/mg | DOX in tumor ([3]; 2 h, listed as free DOX): 0.37 ± 0.002 ng/mg | DOX in heart ([3]; 24 h): 4.28 ± 0.63 ng/mg | DOX in kidney ([3]; 24 h): 1.45 ± 0.01 ng/mg | DOX in liver ([3]; 24 h): 1.18 ± 0.31 ng/mg | DOX in lungs ([3]; 24 h): 0.14 ± 0.01 ng/mg | DOX in spleen ([3]; 24 h): 0.14 ± 0.01 ng/mg | DOX in tumor ([3]; 24 h): 0.37 ± 0.01 ng/mg | organ distribution, brain (%) ([3]; 2 h, Supplementary Table 1): 0.13% | organ distribution, heart (%) ([3]; 2 h, Supplementary Table 1): 0.41% | organ distribution, kidney (%) ([3]; 2 h, Supplementary Table 1): 0.42% | organ distribution, liver (%) ([3]; 2 h, Supplementary Table 1): 0.35% | organ distribution, lungs (%) ([3]; 2 h, Supplementary Table 1): 0.08% | organ distribution, spleen (%) ([3]; 2 h, Supplementary Table 1): 0.08% | organ distribution, tumor (%) ([3]; 2 h, Supplementary Table 1): 0.08% | organ distribution, brain (%) ([3]; 24 h, Supplementary Table 2): 0.47% | organ distribution, heart (%) ([3]; 24 h, Supplementary Table 2): 0.62% | organ distribution, kidney (%) ([3]; 24 h, Supplementary Table 2): 0.42% | organ distribution, liver (%) ([3]; 24 h, Supplementary Table 2): 1.38% | organ distribution, lungs (%) ([3]; 24 h, Supplementary Table 2): 0.08% | organ distribution, spleen (%) ([3]; 24 h, Supplementary Table 2): 0.08% | organ distribution, tumor (%) ([3]; 24 h, Supplementary Table 2): 0.08%
Compound: COc1cccc2c1C(=O)c1c(O)c3c(c(O)c1C2=O)C[C@@](O)(C(=O)CO)C[C@@H]3O[C@H]1C[C@H](N)[C@H](O)[C@H](C)O1 [Free DOX, doxorubicin]

From article PMC7017074 (Cancers, 2020)
